Target: T1, PCP site on NMDA receptor
T1 construct: gene Grin1; PCP (channel pore) site of the NMDA receptor complex
Test: PCP-site binding assay
Conditions: read-out: PCP site / IC50/Ki
Source text: PCP-site binding assay on PCP site on NMDA receptor

CNC1(c2ccccc2Cl)CCCC1=O (centres unmarked) [Ketamir-2, 1-(2-chlorophenyl)-N-methyl-2-oxocyclopentan-1-aminium]
IC50: ~100 µM

Nor-Ketamir
IC50: ~470 µM

From publication PMC12231361, “KETAMIR-2, a new molecular entity and novel ketamine analog” (Frontiers in Pharmacology, 2025)
